Laboratory results published in PubChem BioAssay (NCI).
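Exposure lasted 48 hours, with cells grown in 96-well plates and compounds tested at five concentrations. TGI denotes the concentration required for complete inhibition of growth.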

Columns and labels:
Assay in all cases: inhibition of tumour cell growth, NCI panel, 48 h
HCC-2998 colon = tested on: HCC-2998 colon
RXF 393 renal = tested on: RXF 393 renal
ACHN renal = tested on: ACHN renal
SK-OV-3 ovarian = tested on: SK-OV-3 ovarian
A498 renal = tested on: A498 renal
HT29 colon = tested on: HT29 colon
K-562 leukemia = tested on: K-562 leukemia
IGROV1 ovarian = tested on: IGROV1 ovarian
CCRF-CEM leukemia = tested on: CCRF-CEM leukemia
MDA-N = tested on: MDA-N
SW-620 colon = tested on: SW-620 colon
U251 CNS = tested on: U251 CNS
OVCAR-5 ovarian = tested on: OVCAR-5 ovarian
MDA-MB-435 = tested on: MDA-MB-435
786-0 renal = tested on: 786-0 renal
SK-MEL-2 melanoma = tested on: SK-MEL-2 melanoma
SNB-19 CNS = tested on: SNB-19 CNS
SNB-75 CNS = tested on: SNB-75 CNS
NCI-H460 lung = tested on: NCI-H460 lung
SF-539 CNS = tested on: SF-539 CNS

Structure (SMILES)	TGI (HCC-2998 colon)	TGI (RXF 393 renal)	TGI (ACHN renal)	TGI (SK-OV-3 ovarian)	TGI (A498 renal)	TGI (HT29 colon)	TGI (K-562 leukemia)	TGI (IGROV1 ovarian)	TGI (CCRF-CEM leukemia)	TGI (MDA-N)	TGI (SW-620 colon)	TGI (U251 CNS)	TGI (OVCAR-5 ovarian)	TGI (MDA-MB-435)	TGI (786-0 renal)	TGI (SK-MEL-2 melanoma)	TGI (SNB-19 CNS)	TGI (SNB-75 CNS)	TGI (NCI-H460 lung)	TGI (SF-539 CNS)
CC12CCC(CC1=O)C2(C)CCC(N)=O (stereo unspecified)	> 100 µM	> 100 µM	> 100 µM	> 100 µM	> 100 µM	> 100 µM	> 100 µM	> 100 µM	> 100 µM	> 100 µM	> 100 µM	> 100 µM	> 100 µM	> 100 µM	> 100 µM	> 100 µM	> 100 µM	–	–	–
NC(=O)c1cc2cc(Cl)cc(Cl)c2oc1=Nc1ccc(F)cc1	48.9 µM	37 µM	41.8 µM	56.5 µM	35.3 µM	> 100 µM	27.5 µM	87.3 µM	> 100 µM	66.5 µM	> 100 µM	41.2 µM	54.6 µM	44.2 µM	25.3 µM	31.6 µM	42.3 µM	30.3 µM	35.5 µM	–
COCCN(C(C)=O)C1CCC2(SCCS2)c2[nH]c3ccccc3c21 (stereo unspecified)	> 100 µM	> 100 µM	> 100 µM	–	> 100 µM	> 100 µM	> 100 µM	> 100 µM	> 100 µM	> 100 µM	> 100 µM	> 100 µM	> 100 µM	> 100 µM	> 100 µM	–	> 100 µM	> 100 µM	> 100 µM	> 100 µM
O=C(/C=C/c1csc(-c2ccccc2)n1)NCc1ccc(C(=O)NCCc2ccccc2)cc1	> 100 µM	23.4 µM	> 100 µM	56.2 µM	64.8 µM	30.4 µM	> 100 µM	> 100 µM	> 100 µM	> 100 µM	> 100 µM	> 100 µM	> 100 µM	> 100 µM	32.7 µM	> 100 µM	49.1 µM	8.31 µM	> 100 µM	–
CCOC(=O)N/N=C(/OCC)c1ccccc1	> 100 µM	> 100 µM	> 100 µM	> 100 µM	> 100 µM	> 100 µM	> 100 µM	> 100 µM	> 100 µM	> 100 µM	> 100 µM	> 100 µM	> 100 µM	> 100 µM	> 100 µM	> 100 µM	> 100 µM	–	> 100 µM	> 100 µM
C=CCOc1ccc(/C(N=Nc2ccc([N+](=O)[O-])cc2)=N/NC(=O)c2ccccc2)cc1OC	> 100 µM	> 100 µM	> 100 µM	–	> 100 µM	> 100 µM	–	> 100 µM	> 100 µM	> 100 µM	> 100 µM	> 100 µM	> 100 µM	> 100 µM	> 100 µM	> 100 µM	> 100 µM	> 100 µM	> 100 µM	> 100 µM
CC(=O)CCCCC(=O)Nc1ccc(CC(NC(=O)OC(C)(C)C)C(=O)NCC(=O)OCc2ccccc2)cc1 (stereo unspecified)	38 µM	54.5 µM	> 100 µM	52.7 µM	60.6 µM	36.7 µM	47.6 µM	> 100 µM	–	38.6 µM	33 µM	32.7 µM	> 100 µM	36 µM	49 µM	–	55 µM	–	43 µM	34.1 µM
CCOC(=O)C1=[N+]([O-])OC2=C(O)CCCC21 (stereo unspecified)	> 100 µM	> 100 µM	> 100 µM	> 100 µM	> 100 µM	> 100 µM	> 100 µM	> 100 µM	> 100 µM	> 100 µM	> 100 µM	> 100 µM	> 100 µM	> 100 µM	> 100 µM	> 100 µM	> 100 µM	> 100 µM	> 100 µM	–
CCOP(=O)(OCC)C1CC(O)C(=O)N1 (stereo unspecified)	–	–	> 100 µM	> 100 µM	> 100 µM	> 100 µM	> 100 µM	> 100 µM	> 100 µM	> 100 µM	> 100 µM	> 100 µM	> 100 µM	> 100 µM	> 100 µM	> 100 µM	> 100 µM	> 100 µM	–	–
COC12OC3(C4OC41)C(C(=O)O[C@H]3CO[Si](C)(C)C(C)(C)C)C2C(=O)Oc1ccccc1 (stereo partly specified)	> 100 µM	–	> 100 µM	> 100 µM	> 100 µM	> 100 µM	> 100 µM	> 100 µM	> 100 µM	> 100 µM	> 100 µM	> 100 µM	> 100 µM	> 100 µM	> 100 µM	> 100 µM	> 100 µM	> 100 µM	> 100 µM	–
CC#CC#C/C=C1/O[C@]2(CCC(OC(C)=O)CO2)[C@@H]2O[C@H]12 (stereo partly specified)	33 µM	47.5 µM	60.8 µM	> 100 µM	45.7 µM	96.1 µM	> 100 µM	> 100 µM	55.3 µM	> 100 µM	95.9 µM	39.1 µM	71.2 µM	81.5 µM	46.9 µM	40.5 µM	> 100 µM	> 100 µM	41.8 µM	–
N#CC12C(=O)N3C(=NC(c4ccccc4)NC3c3ccccc3)C1(C#N)C(c1ccccc1)NC1=C2CCC1 (stereo unspecified)	> 100 µM	> 100 µM	> 100 µM	> 100 µM	> 100 µM	> 100 µM	> 100 µM	> 100 µM	> 100 µM	> 100 µM	> 100 µM	> 100 µM	> 100 µM	> 100 µM	> 100 µM	> 100 µM	> 100 µM	> 100 µM	> 100 µM	–
S=c1sc2c(s1)SCCCCSCCCCSc1sc(=S)sc1SCCCCSCCCCS2	> 100 µM	–	> 100 µM	> 100 µM	> 100 µM	> 100 µM	> 100 µM	> 100 µM	> 100 µM	> 100 µM	> 100 µM	> 100 µM	> 100 µM	> 100 µM	> 100 µM	> 100 µM	> 100 µM	59.2 µM	> 100 µM	> 100 µM
CCOC(=O)C1(C(=O)OCC)Nc2cccnc2N(C)N1	–	33.3 µM	–	> 100 µM	52.4 µM	32.2 µM	49.9 µM	42.1 µM	44.6 µM	35.4 µM	69 µM	41.4 µM	–	36 µM	36 µM	37 µM	> 100 µM	> 100 µM	> 100 µM	30.7 µM
O=[N+]([O-])c1ccc(-c2csc3nc(-c4ccccc4)nn23)cc1	> 100 µM	> 100 µM	> 100 µM	> 100 µM	> 100 µM	> 100 µM	> 100 µM	> 100 µM	> 100 µM	> 100 µM	> 100 µM	> 100 µM	> 100 µM	> 100 µM	> 100 µM	> 100 µM	> 100 µM	> 100 µM	–	–
CCCNC(=O)c1cc(NC(=O)c2cc(NC(=O)/C=C/c3ccccc3)c(OC)c(OC)c2)c(OC)c(OC)c1	–	8.31 µM	36.8 µM	25.1 µM	30.8 µM	66.5 µM	> 100 µM	31.7 µM	> 100 µM	> 100 µM	> 100 µM	13.9 µM	57.1 µM	66.5 µM	18.6 µM	31.2 µM	21.6 µM	7.76 µM	82.5 µM	20.4 µM
C=CCOc1ccc(/C(N=Nc2ccc(Cl)cc2)=N/NC(=O)c2ccccc2)cc1OC	> 100 µM	–	> 100 µM	–	> 100 µM	> 100 µM	–	> 100 µM	86.9 µM	> 100 µM	> 100 µM	> 100 µM	> 100 µM	> 100 µM	> 100 µM	> 100 µM	> 100 µM	> 100 µM	> 100 µM	–
O=C(Cc1ccccc1)NNc1nc(NNC(=O)c2ccncc2)nc(Nc2ccc([N+](=O)[O-])cc2)n1	> 10 µM	–	> 10 µM	> 10 µM	> 10 µM	> 10 µM	> 10 µM	> 10 µM	> 10 µM	> 10 µM	> 10 µM	> 10 µM	> 10 µM	> 10 µM	> 10 µM	–	> 10 µM	> 10 µM	> 10 µM	> 10 µM
CC(=O)OCOC(=O)CN(CC(=O)OCOC(C)=O)Cc1cc2c(cc1OC(C)=O)Oc1cc(OC(C)=O)c(CN(CC(=O)OCOC(C)=O)CC(=O)OCOC(C)=O)cc1C21OC(=O)c2ccccc21	–	1.43 µM	4.02 µM	9.4 µM	2.61 µM	1.88 µM	0.401 µM	1.36 µM	0.374 µM	1.32 µM	3.64 µM	8.5 µM	11.1 µM	2.02 µM	1.41 µM	2.33 µM	6.16 µM	9.39 µM	1.45 µM	1.05 µM
CC1CNc2ccccc2N=C1NN (stereo unspecified)	> 100 µM	> 100 µM	> 100 µM	> 100 µM	> 100 µM	> 100 µM	> 100 µM	> 100 µM	> 100 µM	> 100 µM	> 100 µM	> 100 µM	> 100 µM	> 100 µM	> 100 µM	> 100 µM	> 100 µM	–	> 100 µM	> 100 µM
CCOC(=O)c1c(N2CCCC2)nsc1Nc1ccc(F)cc1	> 100 µM	31.9 µM	> 100 µM	> 100 µM	> 100 µM	68 µM	> 100 µM	> 100 µM	73.7 µM	> 100 µM	> 100 µM	> 100 µM	89.7 µM	> 100 µM	> 100 µM	46.4 µM	> 100 µM	–	> 100 µM	> 100 µM
CCN(CC)CCC(=O)c1ccc(Oc2ccc(Cl)cc2)cc1	34.2 µM	43.2 µM	25.8 µM	–	31.7 µM	47.2 µM	> 100 µM	41.8 µM	58.1 µM	29.6 µM	44.4 µM	33.1 µM	29.9 µM	34.2 µM	28.3 µM	32 µM	> 100 µM	25.5 µM	29.2 µM	42.1 µM
CC(C)(Br)C(Br)CCC(C)(Br)C(Br)CO (stereo unspecified)	> 10 µM	> 10 µM	> 10 µM	> 10 µM	> 10 µM	> 10 µM	> 10 µM	> 10 µM	> 10 µM	> 10 µM	> 10 µM	> 10 µM	–	> 10 µM	> 10 µM	–	> 10 µM	> 10 µM	–	> 10 µM
c1ccc([P+](Cc2ccc(C[P+](c3ccccc3)(c3ccccc3)c3ccccc3)cc2)(c2ccccc2)c2ccccc2)cc1	> 100 µM	> 100 µM	> 100 µM	> 100 µM	> 100 µM	> 100 µM	29.8 µM	> 100 µM	> 100 µM	> 100 µM	> 100 µM	> 100 µM	> 100 µM	> 100 µM	> 100 µM	–	> 100 µM	> 100 µM	> 100 µM	> 100 µM
[N-]=[N+]=Nc1c(C=O)c(=O)n2c3c(cccc13)CCC2	33.6 µM	3.76 µM	11.5 µM	33.9 µM	28.8 µM	> 70.2 µM	13 µM	25 µM	6.44 µM	15.3 µM	2.87 µM	19.5 µM	21 µM	20.1 µM	8.83 µM	–	42.1 µM	29.1 µM	47.2 µM	36.1 µM
